Structures can show the parent of a compound that is named as a salt.
Tests used:
[1] = Solubility of active drug substances in water; assay type: physicochemical
[2] = Particle size of active drug substance; assay type: physicochemical; conditions: drug substance raw material

solubility [1] [mg/mL]	Particle size [2] [μm]	SMILES
> 100	–	COc1ccc([C@@H]2Sc3ccccc3N(CCN(C)C)C(=O)[C@@H]2OC(C)=O)cc1 [Diltiazem hydrochloride]
–	<10	NS(=O)(=O)c1cc(C(=O)O)c(NCc2ccco2)cc1Cl [Furosemide]
